The source of these data is paper PMC5748833, “Synthesis and Biological Evaluation of Novel Hybrid Molecules Containing Purine, Coumarin and Isoxazoline or Isoxazole Moieties” (The Open Medicinal Chemistry Journal, 2017).

Experiment [1] has as its target T1, electric eel acetylcholinesterase (eeAChE) (Electrophorus electricus, UniProt O42275).
T1 construct: purchased Sigma
The experiment can be described thus: biochemical. Format: biochemical. The note with it: for pIC50: read-out: eeAChE IC50 μΜ; for inhibition at 10 µM: read-out: eeAChE % inhibn. @ 10 μΜ. From the text:
(§1) 2.2.2.5 Inhibition Study on ChEs in vitro
(§2) In vitro inhibition of electric eel acetylcholinesterase (eeAChE; 463 U/mg, Sigma) and equine serum butyrylcholinesterase (esBChE; 13 U/mg, Sigma) was investigated with a 96-well plate procedure based on the classical Ellman’s spectrophotometric test, as already described.

Experiment [2] in a line: Reducing activity of the stable radical DPPH. The note with it: 100 μM compound, after 20 min. The procedure:
2.2.2.1 Determination of the reducing activity of the stable radical 1, 1-diphenyl-picrylhydrazyl (DPPH)
To a solution of DPPH (100μM) in absolute ethanol an equal volume of the compounds dissolved in ethanol was added. As control solution ethanol was used. The concentration of the solutions of the compounds was 100μM. After 20 and 60 min at room temperature the absorbance was recorded at 517 nm (Table 5). NDGA was used as a standard.
The compounds were studied for their antioxidant activity by the use of the stable 2,2-diphenyl-1-picrylhydrazyl radical (DPPH) at concentration 0.1mM after 20 min. […] This purple colour generally disappears in the presence of an antioxidant. The reduction of absorbance is a measure of the free DPPH due to the action of the antioxidant. The antioxidant activity was expressed as the RA% (Reducing Activity). […] Within the group of derivatives 4 the presence of the morpholinyl or piperidinyl rings at position A as well as the carbonyl group at position B, hinder the interaction of the compounds to the free stable radical DPPH.
For orientation: The DPPH test is a chemical assay of radical scavenging.

The target of another experiment is T2, soybean lipoxygenase (Glycine max, UniProt P08170).
T2 construct: purchased Sigma Chemical, Co. (St. Louis, MO, USA)
T2 sequence (P08170 1-839): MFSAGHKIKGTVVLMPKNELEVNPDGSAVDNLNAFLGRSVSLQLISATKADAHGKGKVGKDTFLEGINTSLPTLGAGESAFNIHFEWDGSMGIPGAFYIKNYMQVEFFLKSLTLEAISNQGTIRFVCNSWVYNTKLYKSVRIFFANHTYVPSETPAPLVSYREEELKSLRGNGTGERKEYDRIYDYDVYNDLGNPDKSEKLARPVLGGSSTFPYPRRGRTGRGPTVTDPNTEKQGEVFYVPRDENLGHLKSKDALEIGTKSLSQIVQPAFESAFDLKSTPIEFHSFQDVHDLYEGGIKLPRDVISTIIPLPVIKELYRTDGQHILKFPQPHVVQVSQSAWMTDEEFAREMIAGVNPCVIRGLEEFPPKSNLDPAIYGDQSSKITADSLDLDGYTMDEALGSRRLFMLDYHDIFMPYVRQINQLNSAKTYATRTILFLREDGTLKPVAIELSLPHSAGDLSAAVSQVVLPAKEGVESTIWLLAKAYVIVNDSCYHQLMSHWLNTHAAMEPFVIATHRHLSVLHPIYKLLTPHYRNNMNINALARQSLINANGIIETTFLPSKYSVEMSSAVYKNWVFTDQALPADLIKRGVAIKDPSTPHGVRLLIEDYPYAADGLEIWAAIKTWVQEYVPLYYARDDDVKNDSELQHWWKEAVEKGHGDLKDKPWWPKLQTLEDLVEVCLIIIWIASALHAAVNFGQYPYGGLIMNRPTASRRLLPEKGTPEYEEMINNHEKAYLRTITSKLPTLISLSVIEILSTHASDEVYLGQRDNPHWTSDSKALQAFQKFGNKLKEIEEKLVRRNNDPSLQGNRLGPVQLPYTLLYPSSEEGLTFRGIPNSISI
The experiment in a line: Soybean lipoxygenase inhibition in vitro. Format: biochemical. The note with it: for pIC50: read-out: LOX IC50 μΜ; for inhibition at 100 µM: read-out: %LOX @ 100μΜ; for %LOX @ 100μΜ: 100 μM compound. The procedure: 2.2.2.4 Soybean lipoxygenase inhibition study in vitro [14]
In vitro study was evaluated as reported previously. The tested compounds dissolved in ethanol were incubated at room temperature with sodium linoleate (0.1 mM) and 0.2 ml of enzyme solution (1/9 x10^-4 w/v in saline). […] Several concentrations were used for the determination of IC50 values (Table 5).
LO is the key enzyme in leukotriene biosynthesis. Leukotrienes derived from the biotransformation of arachidonic acid catalyzed by 5-lipoxygenase (5-LO), are important inflammatory mediators implicated in several diseases. LOs play a role in membrane lipid peroxidation by forming hydroperoxides in the lipid bilayer. […] Most of the LO inhibitors are antioxidants or free radical scavengers, since lipoxygenation occurs via a carbon-centered radical. The evaluation of the novel coumarin hybrids against soybean lipoxygenase LO was accomplished by the UV-based enzyme assay.

A further experiment has as its target T3, rat monoamine oxidase A (Rattus norvegicus, UniProt P21396).
T3 construct: from tissue
T3 sequence (P21396 1-526): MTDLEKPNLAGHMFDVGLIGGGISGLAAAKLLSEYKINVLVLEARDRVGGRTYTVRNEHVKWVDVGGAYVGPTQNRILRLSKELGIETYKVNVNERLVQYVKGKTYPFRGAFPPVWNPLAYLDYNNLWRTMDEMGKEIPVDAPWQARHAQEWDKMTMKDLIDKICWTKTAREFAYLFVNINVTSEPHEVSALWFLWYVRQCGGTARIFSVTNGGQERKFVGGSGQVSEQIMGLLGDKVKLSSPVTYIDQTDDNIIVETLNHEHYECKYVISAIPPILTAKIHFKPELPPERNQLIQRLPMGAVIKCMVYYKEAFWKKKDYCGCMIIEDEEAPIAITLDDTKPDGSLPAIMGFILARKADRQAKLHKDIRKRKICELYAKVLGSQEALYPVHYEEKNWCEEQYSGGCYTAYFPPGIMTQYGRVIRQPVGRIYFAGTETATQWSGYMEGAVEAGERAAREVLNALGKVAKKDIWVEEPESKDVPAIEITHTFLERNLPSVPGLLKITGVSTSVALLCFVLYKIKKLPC
The experiment can be described thus: Inhibition of MAO-A (spectrofluorimetric method). The note with it: 10 μM compound. Format: biochemical. From the text:
(§3) 2.2.2.6 Inhibition Study on MAOs in vitro
(§4) Inhibition of rat monoamine oxidase A and B was studied by means of a spectrofluorimetric method as previously detailed.

Experiment [3] addresses T4, equine serum butyrylcholinesterase (esBChE) (Equus caballus, UniProt P81908).
T4 construct: purchased Sigma; host or cells: equine serum
The experiment in a line: Inhibition of esBChE (Ellman's test). The note with it: for inhibition at 10 µM: read-out: esBChE % inhibn. @ 10 μΜ. The class given is biochemical.
Text: as §1, §2
For orientation: DTNB colorimetry detects thiols as they appear.

In a further experiment the target is T5, rat monoamine oxidase B (Rattus norvegicus, UniProt P19643).
T5 construct: from tissue
T5 sequence (P19643 1-520): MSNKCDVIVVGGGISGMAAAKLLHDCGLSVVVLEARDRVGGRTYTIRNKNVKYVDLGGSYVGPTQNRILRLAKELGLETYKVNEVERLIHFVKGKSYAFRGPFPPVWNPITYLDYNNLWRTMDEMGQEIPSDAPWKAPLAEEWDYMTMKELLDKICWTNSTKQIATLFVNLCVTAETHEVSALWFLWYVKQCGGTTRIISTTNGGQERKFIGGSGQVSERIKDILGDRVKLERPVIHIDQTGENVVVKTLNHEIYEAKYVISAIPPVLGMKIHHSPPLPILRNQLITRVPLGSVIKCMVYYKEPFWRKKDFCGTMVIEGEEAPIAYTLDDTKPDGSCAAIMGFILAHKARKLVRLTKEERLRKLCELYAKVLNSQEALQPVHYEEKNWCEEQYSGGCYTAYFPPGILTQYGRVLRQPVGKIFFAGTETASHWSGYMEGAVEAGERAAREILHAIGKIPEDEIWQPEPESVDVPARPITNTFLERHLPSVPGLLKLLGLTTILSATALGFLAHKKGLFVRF
The experiment in a line: Inhibition of MAO-B (spectrofluorimetric method). Format: biochemical. The conditions noted are these: 10 μM compound.
Text: as §3, §4

A short description of experiment [4]: Inhibition of linoleic acid lipid peroxidation (AAPH). The note with it: 100 μM compound, 37°C. As to the method:
2.2.2.3 Inhibition of linoleic acid lipid peroxidation
Production of conjugated diene hydroperoxide by oxidation of linoleic acid sodium salt in an aqueous solution was monitored at 234 nm. 2,2’-Azobis(2-amidinopropane) dihydrochloride (AAPH) was used as a free radical initiator. 10 μl of the 16 mM linoleic acid sodium salt solution was added to the UV cuvette containing 0.93 ml of 0.05 M phosphate buffer, pH 7.4 prethermostated at 37°C. The oxidation reaction was initiated at 37°C under air by the addition of 50 μl of 40 mM AAPH solution. Oxidation was carried out in the presence of 10 μl of the examined compounds (stock solution in DMSO). In the assay without antioxidant, lipid oxidation was measured in the presence of the same level of DMSO. The rate of oxidation at 37°C was monitored by recording the increase in absorption at 234 nm caused by conjugated diene hydroperoxides (Table 5). Trolox was used as a standard.
Anti-lipid peroxidation activity. The water-soluble azo compound AAPH has been extensively used as a clean and controllable source of thermally produced alkyl peroxyl free radicals, through spontaneous thermal decomposition. […] In the AAPH assay, the highly reactive alkylperoxyl radicals are intercepted mainly by a hydrogen atom transfer (HAT) from the antioxidant.

The term pIC50 denotes −log10 of the IC50, conventionally taken in molar units.

pIC50: −log10 of the molar value. Values joined by “and” are separate entries in the source; they are usually repeats but may differ in a detail not shown here. Identical values can stand only once.

T4 sequence (P81908 whole entry): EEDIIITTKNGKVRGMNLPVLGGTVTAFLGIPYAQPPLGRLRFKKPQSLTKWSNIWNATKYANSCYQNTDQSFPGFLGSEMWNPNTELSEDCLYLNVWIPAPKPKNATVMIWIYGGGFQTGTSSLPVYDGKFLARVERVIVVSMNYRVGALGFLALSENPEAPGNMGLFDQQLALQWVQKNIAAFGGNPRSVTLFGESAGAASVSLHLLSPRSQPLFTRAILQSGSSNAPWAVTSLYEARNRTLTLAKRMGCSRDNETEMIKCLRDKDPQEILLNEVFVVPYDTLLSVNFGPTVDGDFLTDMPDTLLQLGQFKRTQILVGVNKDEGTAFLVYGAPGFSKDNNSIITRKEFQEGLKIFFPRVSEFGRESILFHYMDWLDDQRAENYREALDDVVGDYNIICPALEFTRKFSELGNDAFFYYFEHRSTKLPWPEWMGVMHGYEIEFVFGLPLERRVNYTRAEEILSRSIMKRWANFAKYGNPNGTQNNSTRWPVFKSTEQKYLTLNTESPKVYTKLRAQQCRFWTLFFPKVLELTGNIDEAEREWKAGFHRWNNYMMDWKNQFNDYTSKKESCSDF
T1 sequence (O42275 24-633): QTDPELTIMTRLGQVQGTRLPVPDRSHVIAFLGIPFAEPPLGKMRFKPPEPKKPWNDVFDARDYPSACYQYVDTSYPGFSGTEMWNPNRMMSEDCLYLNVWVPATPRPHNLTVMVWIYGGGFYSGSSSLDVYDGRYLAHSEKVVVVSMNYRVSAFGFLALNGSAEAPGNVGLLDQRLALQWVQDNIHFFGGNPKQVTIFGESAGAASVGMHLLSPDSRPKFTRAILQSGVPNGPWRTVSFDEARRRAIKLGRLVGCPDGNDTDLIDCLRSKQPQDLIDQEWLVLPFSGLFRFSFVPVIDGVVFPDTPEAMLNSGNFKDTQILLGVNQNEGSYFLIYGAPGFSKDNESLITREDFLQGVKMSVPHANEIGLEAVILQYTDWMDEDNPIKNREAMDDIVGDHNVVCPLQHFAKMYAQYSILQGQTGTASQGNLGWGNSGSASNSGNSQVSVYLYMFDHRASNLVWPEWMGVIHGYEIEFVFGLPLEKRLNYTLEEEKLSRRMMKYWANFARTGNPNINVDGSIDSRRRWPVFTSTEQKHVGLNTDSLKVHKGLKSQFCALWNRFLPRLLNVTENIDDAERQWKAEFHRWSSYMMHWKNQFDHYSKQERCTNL

Consider `O=c1ccc2ccc(OCc3cc(Cn4cnc5c(N6CCCCC6)ncnc54)no3)cc2o1` [13e], for which the pIC50 in experiment [1] was 5.76; at soybean lipoxygenase, 4.20 and 4.21; in experiment [3] (read-out: esBChE IC50 μΜ), 4.74. Moreover, the “RA% @ 100μΜ (reducing activity, DPPH)” value in experiment [2] is recorded as “no”. Besides, at rat monoamine oxidase A, the “MAO-A (%) @ 10μΜ” value came to 18%. The “MAO-B (%) @ 10μΜ” value on rat monoamine oxidase B is 15%.
In the case of `Cc1cc(=O)oc2cc(OCCC3CC(Cn4cnc5c(N6CCOCC6)ncnc54)=NO3)ccc12` (stereo not drawn) [4i], the “LP % @ 100μΜ (inhibition of lipid peroxidation)” value in experiment [4] amounted to 54%. Besides, the pIC50 in experiment [1] is 5.11. Also, the inhibition at 100 µM on soybean lipoxygenase came out at 2%. The “MAO-A (%) @ 10μΜ” value at rat monoamine oxidase A was 25%. Moreover, the inhibition at 10 µM in experiment [3] worked out at 15%. Moreover, the “MAO-B (%) @ 10μΜ” value at rat monoamine oxidase B is “no”.
Turning to `Cc1cc(=O)oc2ccc(OCc3cc(Cn4cnc5c(N6CCOCC6)ncnc54)no3)cc12` [13b], the pIC50 in experiment [1] was 5.51. Also, the “RA% @ 100μΜ (reducing activity, DPPH)” value in experiment [2] is “no”. Also, the inhibition at 100 µM at soybean lipoxygenase is 44%. The “MAO-A (%) @ 10μΜ” value on rat monoamine oxidase A is on record as 12%. In addition, in experiment [3], the inhibition at 10 µM is 13%. Also, the “MAO-B (%) @ 10μΜ” value on rat monoamine oxidase B is “no”.
For the molecule `Cc1cc(=O)oc2cc(OCC3=NOC(Cn4cnc5c(N6CCOCC6)ncnc54)C3)ccc12` (stereo not drawn) [11f], the “LP % @ 100μΜ (inhibition of lipid peroxidation)” value in experiment [4] was 48%. Also, the inhibition at 10 µM in experiment [1] is 43%; in experiment [3] it was 14%. Also, the “%LOX @ 100μΜ” value on soybean lipoxygenase is reported as “no”. Also, the “MAO-A (%) @ 10μΜ” value at rat monoamine oxidase A was 16%. The “MAO-B (%) @ 10μΜ” value at rat monoamine oxidase B stood at 8%.
For the molecule `Cc1cc(=O)oc2ccc(OCC3CC(Cn4cnc5c(N6CCOCC6)ncnc54)=NO3)cc12` (stereo not drawn) [4b], the “LP % @ 100μΜ (inhibition of lipid peroxidation)” value in experiment [4] was “no”. Moreover, the pIC50 in experiment [1] was 5.64; on soybean lipoxygenase it was 4.22. In addition, at rat monoamine oxidase A, the “MAO-A (%) @ 10μΜ” value was “no”. Further, the inhibition at 10 µM in experiment [3] was found to be 17%. In addition, the “MAO-B (%) @ 10μΜ” value on rat monoamine oxidase B is listed as 24%.
As for `Cc1cc(=O)oc2ccc(OCc3cc(Cn4cnc5c(N6CCCCC6)ncnc54)no3)cc12` [13a, 4-methyl-6-({3-[(6-piperidin-1-yl-9H-purin-9-yl)methyl]isoxazol-5-yl}methoxy)-2H-chromen-2-one], the inhibition at 10 µM in experiment [1] is 40%; in experiment [3], 23%. In addition, in experiment [2], the “RA% @ 100μΜ (reducing activity, DPPH)” value is recorded as “no”. Besides, the “%LOX @ 100μΜ” value on soybean lipoxygenase is reported as “no”. Also, the “MAO-A (%) @ 10μΜ” value on rat monoamine oxidase A came to 47%. At rat monoamine oxidase B, the “MAO-B (%) @ 10μΜ” value is on record as 33%.
In the case of `Cc1cc(=O)oc2cc(OCC3=NOC(Cn4cnc5c(Cl)ncnc54)C3)ccc12` (stereo not drawn) [11e], the “LP % @ 100μΜ (inhibition of lipid peroxidation)” value in experiment [4] is recorded as 63%. For the same molecule, the pIC50 in experiment [1] was 5.11. Moreover, on soybean lipoxygenase, the “%LOX @ 100μΜ” value is recorded as “no”. Besides, on rat monoamine oxidase A, the “MAO-A (%) @ 10μΜ” value was “no”. Besides, the inhibition at 10 µM in experiment [3] came to 8%. For the same molecule, on rat monoamine oxidase B, the “MAO-B (%) @ 10μΜ” value is given as 9%.
